From PMC10667655 (Environmental Microbiology Reports, 2023) come the findings set out here.

Common to all, as to type: cell-based
Assay [1] concerns T1, isoprene monooxygenase (IsoMO) of Rhodococcus sp. AD45.
T1 construct: gene isoA; native enzyme in whole cells of isoprene-grown bacteria; four-component soluble diiron monooxygenase, a2b2g2 oxygenase; with Isoprene monooxygenase oxygenase component subunit gamma; Isoprene monooxygenase Rieske-type ferredoxin component; Isoprene monooxygenase oxygenase component subunit beta
Briefly: inhibition of isoprene uptake, headspace gas chromatography. To be noted: whole cells; about 5 μM isoprene in liquid; 50 mM phosphate pH 7.0, 30°C; alkyne in DMSO.

The test system is the same in assay [2]. Kind of assay: headspace substrate depletion, whole cells, non-linear regression. To be noted: whole isoprene-grown cells; 50 mM phosphate pH 7.0, 30°C; O2 co-substrate; read-out: K m(app). The source says:
headspace substrate depletion, whole cells, non-linear regression on isoprene monooxygenase (IsoMO) of Rhodococcus sp. AD45

For assay [3], the system named is T2, isoprene monooxygenase (IsoMO) of Variovorax sp. WS11.
T2 construct: gene isoA; native enzyme in whole fermentor-grown cells; iso genes on a megaplasmid; with Isoprene monooxygenase oxygenase component subunit gamma; Isoprene monooxygenase Rieske-type ferredoxin component; Isoprene monooxygenase oxygenase component subunit beta
Briefly: headspace isoprene depletion by gas chromatography, whole cells. To be noted: whole fermentor-grown cells; O2 co-substrate; read-out: K m(app). The text has this: headspace isoprene depletion by gas chromatography, whole cells on isoprene monooxygenase (IsoMO) of Variovorax sp. WS11

The term % inhibition denotes the relative decrease from the control value, in per cent. Lower therefore signals a weak effect. `C#CCCCCCC` [1‐octyne]: the “% inhibition at 50 μM” value in assay [1] stood at 74%.
For `C=CC(=C)C` [isoprene, 2‐methyl‐1,3‐butadiene], the values for the Km in assay [2] and in assay [3] were 4 ± 1.3 µM and 10.5 ± 3.9 µM, respectively.
Take `C=CC` [propylene]: the Km in assay [2] was found to be 2 ± 0.8 µM.
